Test results published in ChEMBL document CHEMBL1156673, “4-nitroacetophenone-derived thiosemicarbazones and their copper(II) complexes with significant in vitro anti-trypanosomal activity” (Eur J Med Chem, 2008).

Legend:
Trypanosoma cruzi [1] = assay: Antitrypanosomal activity against Trypanosoma cruzi Tulahuen 2 at 25 uM after 5 days; assay type: functional; conditions: Tulahuen 2, 120 h, read-out: GI
Trypanosoma cruzi [2] = assay: Antitrypanosomal activity against Trypanosoma cruzi Tulahuen 2 after 5 days; assay type: functional; conditions: Tulahuen 2, 120 h, read-out: ID50 (the source's name)
[3] = Therapeutic index, ID50 for human THP1 cells to ID50 for Trypanosoma cruzi; assay type: cell-based; conditions: THP-1 cells versus Trypanosoma cruzi, read-out: TI
[4] = Cytotoxicity against human THP1 cells after 48 hrs; assay type: cell-based; conditions: THP-1 cells, read-out: ID50

| IC50 (Trypanosoma cruzi [2]) [µM] | SMILES | inhibition of growth at 25 µM (Trypanosoma cruzi [1]) [%] | selectivity ratio [3] | CC50 at 48 h [4] [µM] |
| --- | --- | --- | --- | --- |
| > 25 | C/C(=N\NC(=S)N1CCCCC1)c1ccc([N+](=O)[O-])cc1 | 12 |  |  |
| > 25 | CNC(=S)N/N=C(\C)c1ccc([N+](=O)[O-])cc1 | 31 | > 16 | > 400 |
| 0.28 | C/C(=N\NC(=S)N(C)C)c1ccc([N+](=O)[O-])cc1 | 100 | > 1430 | > 400 |

| SMILES | IC50 (Trypanosoma cruzi [2]) [µM] | inhibition of growth at 25 µM (Trypanosoma cruzi [1]) [%] | selectivity ratio [3] | CC50 at 48 h [4] [µM] |
| --- | --- | --- | --- | --- |
| O=C(Cn1ccnc1[N+](=O)[O-])NCc1ccccc1 [BENZNIDAZOLE] | 7.4 | 100 | > 40 | > 300 |
| CC1CS(=O)(=O)CCN1/N=C/c1ccc([N+](=O)[O-])o1 (stereo not drawn) [NIFURTIMOX] | 7.7 | 100 | > 38 | > 300 |
